{"source": "paper PMC9613624", "about": "(Journal of medicinal chemistry, 2022)", "key": {"AKT [1]": {"system": "AKT", "experiment": "Western blotting of T-AKT in HT-29 cells", "assay_type": "cell-based", "details": "HT-29 cells (BRAF mutant), 1 μM, 24 h"}, "AKT2 [2]": {"biological_target": "T1, AKT2 (Homo sapiens, UniProt P31751)", "T1 sequence (P31751 whole entry)": "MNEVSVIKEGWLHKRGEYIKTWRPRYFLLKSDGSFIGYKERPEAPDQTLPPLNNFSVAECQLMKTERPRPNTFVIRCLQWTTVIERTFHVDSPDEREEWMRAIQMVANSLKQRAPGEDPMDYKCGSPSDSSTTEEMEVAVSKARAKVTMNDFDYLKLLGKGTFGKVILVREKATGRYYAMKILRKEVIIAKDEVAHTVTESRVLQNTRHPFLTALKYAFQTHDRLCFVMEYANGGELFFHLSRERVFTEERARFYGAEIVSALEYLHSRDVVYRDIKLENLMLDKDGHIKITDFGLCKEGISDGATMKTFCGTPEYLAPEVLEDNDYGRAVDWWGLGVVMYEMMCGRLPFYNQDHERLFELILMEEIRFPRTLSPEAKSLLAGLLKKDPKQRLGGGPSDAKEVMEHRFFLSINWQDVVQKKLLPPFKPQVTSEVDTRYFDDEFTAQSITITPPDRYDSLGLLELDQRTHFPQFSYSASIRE", "experiment": "Global TMT MS-based quantitative proteomic study in SW620 cells", "assay_type": "cell-based", "details": "1 μM, 18 h, 62 compared to 63"}, "AKT [3]": {"system": "AKT", "experiment": "Western blotting of T-AKT in PANC-1 cells", "assay_type": "cell-based", "details": "24 h"}, "[4]": {"experiment": "Mouse pharmacokinetic study", "assay_type": "in vivo, male Swiss Albino mice", "details": "mice, single IP dose 75 mg/kg"}, "P-PRAS40": {"system": "P-PRAS40", "experiment": "Western blotting of P-PRAS40 in SW620 cells", "details": "1 μM, 18 h, Figure S4"}, "AKT1 [5]": {"biological_target": "T2, AKT1 (Homo sapiens, UniProt P31749)", "T2 sequence (P31749 whole entry, canonical isoform)": "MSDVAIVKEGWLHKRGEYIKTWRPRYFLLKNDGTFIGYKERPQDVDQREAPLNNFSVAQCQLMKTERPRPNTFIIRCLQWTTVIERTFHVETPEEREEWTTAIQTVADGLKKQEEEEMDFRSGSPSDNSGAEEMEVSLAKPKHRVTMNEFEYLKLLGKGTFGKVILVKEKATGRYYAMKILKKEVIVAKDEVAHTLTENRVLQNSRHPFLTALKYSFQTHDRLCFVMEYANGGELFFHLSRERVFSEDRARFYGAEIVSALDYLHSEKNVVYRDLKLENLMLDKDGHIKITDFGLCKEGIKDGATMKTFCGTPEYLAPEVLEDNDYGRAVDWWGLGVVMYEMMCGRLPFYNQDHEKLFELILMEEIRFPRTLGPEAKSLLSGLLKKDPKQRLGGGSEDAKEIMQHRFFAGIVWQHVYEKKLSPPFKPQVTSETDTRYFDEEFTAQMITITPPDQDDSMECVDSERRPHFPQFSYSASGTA", "experiment": "Western blotting of AKT isoforms in SW620 cells", "assay_type": "cell-based", "details": "Figure S3"}, "AKT [6]": {"system": "AKT", "experiment": "Western blotting of T-AKT in Mia PaCa-2 cells", "assay_type": "cell-based", "details": "Mia PaCa-2 cells (KRAS mutant), Figure S2A"}, "SW620 cells [7]": {"system": "SW620 cells", "experiment": "Cell death monitoring with DRAQ7 in SW620 cells", "assay_type": "cell-based", "details": "5 μM, DRAQ7, 0-72 h"}, "AKT2 [8]": {"biological_target": "T1, AKT2", "experiment": "Western blotting of AKT isoforms in SW620 cells", "assay_type": "cell-based", "details": "Figure S3"}, "AKT [9]": {"system": "AKT", "experiment": "Western blotting of T-AKT in SW620 cells", "assay_type": "cell-based", "details": "for effect on AKT protein levels at high concentrations (in words): concentrations up to 10 μM"}, "SW620 cells [10]": {"system": "SW620 cells", "experiment": "Colony formation assay in SW620 cells", "assay_type": "cell-based", "details": "2 weeks, crystal violet"}, "AKT [11]": {"system": "AKT", "experiment": "Western blotting of T-AKT in Colo205 cells", "assay_type": "cell-based", "details": "Colo205 cells (BRAF mutant), 1 μM, 24 h"}, "AKT [12]": {"system": "AKT", "experiment": "Western blotting of T-AKT in SKMEL 239 cells", "assay_type": "cell-based", "details": "SKMEL 239 cells (BRAF mutant), 1 μM, 24 h"}, "AKT1 [13]": {"biological_target": "T2, AKT1", "experiment": "Global TMT MS-based quantitative proteomic study in SW620 cells", "assay_type": "cell-based", "details": "1 μM, 18 h, approximately 6433 proteins detected"}, "AKT3": {"biological_target": "AKT3 (Homo sapiens, UniProt Q9Y243)", "sequence (Q9Y243 whole entry)": "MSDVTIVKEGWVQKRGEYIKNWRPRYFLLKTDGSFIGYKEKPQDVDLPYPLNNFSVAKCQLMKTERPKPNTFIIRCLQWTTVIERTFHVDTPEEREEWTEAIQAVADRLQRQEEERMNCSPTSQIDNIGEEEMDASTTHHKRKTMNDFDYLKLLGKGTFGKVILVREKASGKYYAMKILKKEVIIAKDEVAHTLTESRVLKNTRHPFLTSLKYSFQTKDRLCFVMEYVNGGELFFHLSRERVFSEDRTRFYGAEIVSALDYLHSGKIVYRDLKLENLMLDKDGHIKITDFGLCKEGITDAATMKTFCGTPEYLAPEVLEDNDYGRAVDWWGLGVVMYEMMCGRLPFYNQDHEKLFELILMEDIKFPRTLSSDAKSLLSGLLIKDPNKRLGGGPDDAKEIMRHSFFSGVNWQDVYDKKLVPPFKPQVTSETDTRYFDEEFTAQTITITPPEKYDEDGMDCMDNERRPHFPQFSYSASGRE", "experiment": "AKT activity inhibition assay", "assay_type": "biochemical", "details": "10 μM ATP"}, "AKT2 [14]": {"biological_target": "T1, AKT2", "experiment": "AKT activity inhibition assay", "assay_type": "biochemical", "details": "10 μM ATP"}, "AKT1 [15]": {"biological_target": "T2, AKT1", "experiment": "AKT activity inhibition assay", "assay_type": "biochemical", "details": "10 μM ATP"}, "SW620 cells [16]": {"system": "SW620 cells", "experiment": "Cell proliferation assay", "assay_type": "cell-based", "details": "5 days, IncuCyte"}}, "note": "“Also recorded” adds a separate entry of the source."}
{"smiles": "Cc1ncsc1-c1ccc([C@H](C)NC(=O)[C@@H]2C[C@@H](O)CN2C(=O)[C@@H](NC(=O)CCCCCCCCCCNC(=O)CCc2cccc(-c3ccc4nc(-c5cccnc5N)n(-c5ccc(C6(N)CCC6)cc5)c4n3)c2)C(C)(C)C)cc1", "note": "[Compound 62, (2S,4R)-1-((S)-2-(11-(3-(3-(3-(4-(1-Aminocyclobutyl)phenyl)-2-(2-aminopyridin-3-yl)-3H-imidazo[4,5-b]pyridin-5-yl)phenyl)propanamido)undecanamido)-3,3-dimethylbutanoyl)-4-hydroxy-N-((S)-1-(4-(4-methylthiazol-5-yl)phenyl)ethyl)pyrrolidine-2-carboxamide]", "values": [{"measurement": "T-AKT degradation (in words)", "setting": "AKT [1]", "result": "more effective than MS21"}, {"measurement": "AKT2 protein level in TMT proteomics (in words)", "setting": "AKT2 [2]", "result": "also reduced"}, {"measurement": "T-AKT degradation (in words)", "setting": "AKT [3]; PANC-1 cells (KRAS mutant), 1 μM", "result": "near-complete AKT degradation"}, {"measurement": "T-AKT degradation (in words)", "setting": "AKT [3]; PANC-1 cells, 100 nM", "result": "complete degradation"}, {"measurement": "T-AKT degradation at high concentrations (in words)", "setting": "AKT [3]; PANC-1 cells, concentrations up to 10 μM", "result": "no “hooker effect” was observed"}, {"measurement": "clinical signs during the PK study", "setting": "[4]", "result": "No clinical signs were observed"}, {"measurement": "plasma concentrations", "setting": "[4]; maintained for at least 12 h", "result": "above 100 nM"}, {"measurement": "P-PRAS40 inhibition (western blot verification for proteomics, in words)", "setting": "P-PRAS40", "result": "inhibited"}, {"measurement": "AKT1 degradation (western blot, in words)", "setting": "AKT1 [5]", "result": "potently induced"}, {"measurement": "T-AKT degradation (western blot, in words)", "setting": "AKT [6]", "result": "modestly induced AKT degradation"}, {"measurement": "induction of cell apoptosis / percent cell death (in words)", "setting": "SW620 cells [7]", "result": "most effectively"}, {"measurement": "AKT2 degradation (western blot, in words)", "setting": "AKT2 [8]", "result": "potently induced"}, {"measurement": "T-AKT degradation (western blot, in words)", "setting": "AKT [9]; SW620 cells (KRAS mutant), Figure S2", "result": "effectively and completely depleted T-AKT; also recorded: much more effective than MS21"}, {"measurement": "T-AKT degradation (in words)", "setting": "AKT [9]; SW620 cells, 30 nM, 24 h", "result": "substantial T-AKT depletion"}, {"measurement": "T-AKT degradation (in words)", "setting": "AKT [9]; SW620 cells, 100 nM, 24 h", "result": "nearly complete AKT degradation"}, {"measurement": "T-AKT level (western blot verification for proteomics, in words)", "setting": "AKT [9]; SW620 cells, 1 μM, 18 h, Figure S4", "result": "significantly reduced"}, {"measurement": "T-AKT degradation in time-course study (in words)", "setting": "AKT [9]; SW620 cells, 1 μM, at 4 h", "result": "Significant AKT degradation"}, {"measurement": "T-AKT degradation in time-course study (in words)", "setting": "AKT [9]; SW620 cells, 1 μM, at 12 h, maintained for at least another 12 h", "result": "Near complete AKT degradation"}, {"measurement": "T-AKT protein level in time-course study (in words)", "setting": "AKT [9]; SW620 cells, 1 μM, up to 24 h", "result": "time-dependently reduced T-AKT protein levels"}, {"measurement": "effect on AKT protein levels at high concentrations (in words)", "setting": "AKT [9]; SW620 cells, 24 h", "result": "no “hooker effect” was observed"}, {"measurement": "DC50", "setting": "AKT [9]; read-out: DC50, T-AKT degradation, SW620 cells, 24 h, western blot", "result": "23 ± 16", "unit": "nM"}, {"measurement": "inhibition of colony formation (in words)", "setting": "SW620 cells [10]", "result": "significantly inhibited colony formation"}, {"measurement": "T-AKT degradation (in words)", "setting": "AKT [11]", "result": "more effective than MS21"}, {"measurement": "T-AKT degradation (in words)", "setting": "AKT [12]", "result": "more effective than MS21"}, {"measurement": "AKT1 protein level in TMT proteomics (in words)", "setting": "AKT1 [13]", "result": "reduced significantly"}, {"measurement": "proteome-wide degradation selectivity (in words)", "setting": "AKT1 [13]", "result": "generally selective AKT degrader"}]}
{"smiles": "Cc1ncsc1-c1ccc([C@H](C)NC(=O)[C@H]2C[C@H](OCc3ccccc3)CN2C(=O)[C@@H](NC(=O)CCCCCCCCCCNC(=O)CCc2cccc(-c3ccc4nc(-c5cccnc5N)n(-c5ccc(C6(N)CCC6)cc5)c4n3)c2)C(C)(C)C)cc1", "note": "[Compound 64, (2R,4S)-1-((S)-2-(11-(3-(3-(3-(4-(1-Aminocyclobutyl)phenyl)-2-(2-aminopyridin-3-yl)-3H-imidazo[4,5-b]pyridin-5-yl)phenyl)propanamido)undecanamido)-3,3-dimethylbutanoyl)-4-(benzyloxy)-N-((S)-1-(4-(4-methylthiazol-5-yl)phenyl)ethyl)pyrrolidine-2-carboxamide]", "values": [{"measurement": "decrease of AKT3 inhibition potency compared to 62", "setting": "AKT3", "result": 3.6, "unit": "fold"}, {"measurement": "decrease of AKT2 inhibition potency compared to 62", "setting": "AKT2 [14]", "result": 6, "unit": "fold"}, {"measurement": "decrease of AKT1 inhibition potency compared to 62", "setting": "AKT1 [15]", "result": 1.5, "unit": "fold"}, {"measurement": "cell growth inhibition (in words)", "setting": "SW620 cells [16]", "result": "inactive"}, {"measurement": "effect on AKT protein levels at high concentrations (in words)", "setting": "AKT [9]; SW620 cells, 24 h", "result": "no effect"}]}
